Assays:
[1] = compound: O=C(Nc1ccc2[nH]nc(-c3ccncc3)c2c1)[C@@H]1CCN(CC(=O)N2CCN(c3ccc(-c4ncccn4)cc3)CC2)C1; conditions: max 5 µM
How it was run: (§1)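 Cancer cell lines were seeded in 1536-well plates in 7.5 μl DMEM/F12 or RPMI with 10% FBS, held 24 hours at 37°C and 5% CO2, then dosed for 72 hours (final DMSO typically 0.2%). Viability was read by CellTiter-Glo 2.0 luminescence and scaled between blank-well and DMSO-well means. The single-agent IC50 comes from dose responses fitted to a two-parameter logistic curve with a non-linear mixed effects model.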

[2] = compound: Nc1ccn([C@@H]2O[C@H](CO)[C@@H](O)C2(F)F)c(=O)n1 [Gemcitabine]; conditions: max 0.3 µM
How it was run: as §1

[3] = compound: COc1cc([C@@H]2c3cc4c(cc3[C@@H](O[C@@H]3O[C@@H]5CO[C@@H](C)O[C@H]5[C@H](O)[C@H]3O)[C@H]3COC(=O)[C@H]23)OCO4)cc(OC)c1O [Etoposide]; conditions: max 10 µM
How it was run: as §1

[4] = compound: CC(=O)O[C@H]1C(=O)[C@@]2(C)[C@H]([C@H](OC(=O)c3ccccc3)[C@]3(O)C[C@H](OC(=O)[C@H](O)[C@@H](NC(=O)c4ccccc4)c4ccccc4)C(C)=C1C3(C)C)[C@]1(OC(C)=O)CO[C@@H]1C[C@@H]2O [Paclitaxel]; conditions: max 3 µM
How it was run: as §1

[5] = compound: C[C@@H]1COCCN1C2=NC(=NC(=C2)C3(CC3)[S@](=N)(=O)C)C4=C5C=CNC5=NC=C4 [AZD6738]; conditions: max 10 µM
How it was run: as §1

[6] = compound: Cc1cc2ncnn2cc1Nc1ncc2c(n1)n(C1CCOCC1)c(=O)n2C [AZD7648]; conditions: max 10 µM
How it was run: as §1

[7] = compound: Cc1c2c(nn1C)CSCc1cc(n(C)n1)CSc1cc(c3ccccc3c1)OCCCc1c(C(=O)O)n(C)c3c-2c(Cl)ccc13 [AZD5991]; conditions: max 1 µM
How it was run: as §1

[8] = compound: C1CC(C1)(C(=O)[O-])C(=O)[O-].N.N.[Pt+2] [Carboplatin]; conditions: max 10 µM
How it was run: as §1

[9] = compound: O=c1[nH]cc(F)c(=O)[nH]1 [5-Fluorouracil]; conditions: max 20 µM
How it was run: as §1

[10] = compound: Cn1cnc2c(F)c(Nc3ccc(Br)cc3Cl)c(C(=O)NOCCO)cc21 [Selumetinib]; conditions: max 10 µM
How it was run: as §1

[11] = compound: CC(=O)Nc1cccc(-n2c(=O)n(C3CC3)c(=O)c3c(Nc4ccc(I)cc4F)n(C)c(=O)c(C)c32)c1 [Trametinib]; conditions: max 1 µM
How it was run: as §1

[12] = compound: C[C@@H](c1ccc2nccn2c1)n1nnc2ncc(-c3cnn(C)c3)nc21 [Savolitinib]; conditions: max 1 µM
How it was run: as §1

[13] = compound: C1CN(CCC1(C(=O)N[C@@H](CCO)C2=CC=C(C=C2)Cl)N)C3=NC=NC4=C3C=CN4 [AZD5363]; conditions: max 10 µM
How it was run: as §1

[14] = compound: CCc1c2c(nc3ccc(O)cc13)-c1cc3c(c(=O)n1C2)COC(=O)[C@]3(O)CC [SN-38]; conditions: max 0.3 µM
How it was run: as §1

[15] = compound: O=C(c1cc(Cc2n[nH]c(=O)c3ccccc23)ccc1F)N1CCN(C(=O)C2CC2)CC1 [Olaparib]; conditions: max 10 µM
How it was run: as §1

[16] = compound: CCN(CCO)CCCOc1ccc2c(Nc3cc(CC(=O)Nc4cccc(F)c4)[nH]n3)ncnc2c1 [AZD2811]; conditions: max 1 µM
How it was run: as §1

[17] = compound: CS(=O)(=O)CCNCc1ccc(-c2ccc3ncnc(Nc4ccc(OCc5cccc(F)c5)c(Cl)c4)c3c2)o1 [Lapatinib]; conditions: max 10 µM
How it was run: as §1

[18] = compound: CN(C)CCCOc1ccc(-c2ccc3ncc4c(c3c2)n(C2CCOCC2)c(=O)n4C)cn1 [AZD0156]; conditions: max 3 µM
How it was run: as §1

[19] = compound: N#Cc1cnc(Nc2cc(NC[C@H]3CNCCO3)c(C(F)(F)F)cn2)cn1 [SRA737]; conditions: max 10 µM
How it was run: as §1

[20] = compound: COc1cccc(OCCCN)c1-c1cc(Nc2cnc(C#N)cn2)n[nH]1 [Prexasertib]; conditions: max 1 µM
How it was run: as §1

[21] = compound: CC1=CN2[C@@H](C1)C=NC3=CC(=C(C=C3C2=O)OC)OCCCCCOC4=C(C=C5C(=C4)N=C[C@@H]6CC(=CN6C5=O)C)OC [SG3199]; conditions: max 0.001 µM
How it was run: as §1

[22] = compound: COc1cccc2c1C(=O)c1c(O)c3c(c(O)c1C2=O)C[C@@](O)(C(=O)CO)C[C@@H]3O[C@H]1C[C@H](N)[C@H](O)[C@H](C)O1 [Doxorubicin]; conditions: max 1 µM
How it was run: as §1

[23] = compound: C=CCn1c(=O)c2cnc(Nc3ccc(N4CCN(C)CC4)cc3)nc2n1-c1cccc(C(C)(C)O)n1 [AZD1775]; conditions: max 3 µM
How it was run: as §1

[24] = compound: CC(=O)c1c(C)c2cnc(Nc3ccc(N4CCNCC4)cn3)nc2n(C2CCCC2)c1=O [Palbociclib]; conditions: max 10 µM
How it was run: as §1

[25] = compound: CC(C)n1c(=O)n(C)c2cnc3cc(F)c(-c4ccc(OCCCN5CCCCC5)nc4)cc3c21 [AZD1390]; conditions: max 0.3 µM
How it was run: as §1

[26] = compound: COc1nnc2ccc(N3CCC(c4ccc(OCCN5CCN(C)C(=O)[C@H]5C)cc4)CC3)nn12 [AZD5153]; conditions: max 1 µM
How it was run: as §1

[27] = compound: COc1cc(Nc2ncc3c(n2)-c2ccc(Cl)cc2C(c2c(F)cccc2OC)=NC3)ccc1C(=O)O [Alisertib]; conditions: max 10 µM
How it was run: as §1

[28] = compound: C[C@@H](Nc1cc(F)cc(F)c1)c1cc(C(=O)N(C)C)cc2c(=O)cc(N3CCOCC3)oc12 [AZD8186]; conditions: max 10 µM
How it was run: as §1

[29] = compound: CN(CC[C@H](CSC1=CC=CC=C1)NC2=C(C=C(C=C2)S(=O)(=O)NC(=O)C3=CC=C(C=C3)N4CCC(CC4)[C@H](C5=CC=CC=C5C6=CC=C(C=C6)Cl)O)S(=O)(=O)C(F)(F)F)CCO [AZD4320]; conditions: max 1 µM
How it was run: as §1

[30] = compound: CC1(C)CCC(CN2CCN(c3ccc(C(=O)NS(=O)(=O)c4ccc(NCC5CCOCC5)c([N+](=O)[O-])c4)c(Oc4cnc5[nH]ccc5c4)c3)CC2)=C(c2ccc(Cl)cc2)C1 [Venetoclax]; conditions: max 1 µM
How it was run: as §1

[31] = compound: NC1(c2ccc(-c3nc4ccn5c(=O)[nH]nc5c4cc3-c3ccccc3)cc2)CCC1 [MK-2206]; conditions: max 10 µM
How it was run: as §1

[32] = compound: CC1=C(C(=CC=C1)Cl)NC(=O)C2=CN=C(S2)NC3=CC(=NC(=N3)C)N4CCN(CC4)CCO [Dasatinib]; conditions: max 2 µM
How it was run: as §1

[33] = compound: COc1cc2ncnc(Nc3ccc(F)c(Cl)c3)c2cc1OCCCN1CCOCC1 [Gefitinib]; conditions: max 10 µM
How it was run: as §1

[34] = compound: Cc1nc(-c2cn3c(n2)-c2ccc(-c4cnn(C(C)(C)C(N)=O)c4)cc2OCC3)n(C(C)C)n1 [Taselisib]; conditions: max 10 µM
How it was run: as §1

[35] = compound: C[C@@H](Oc1cc(-c2cnn(C3CCNCC3)c2)cnc1N)c1c(Cl)ccc(F)c1Cl [Crizotinib]; conditions: max 10 µM
How it was run: as §1

Cell Line | IC50, cell viability 72 h [1] | IC50, cell viability 72 h [2] | IC50, cell viability 72 h [3] | IC50, cell viability 72 h [4] | IC50, cell viability 72 h [5] | IC50, cell viability 72 h [6] | IC50, cell viability 72 h [7] | IC50, cell viability 72 h [8] | IC50, cell viability 72 h [9] | IC50, cell viability 72 h [10] | IC50, cell viability 72 h [11] | IC50, cell viability 72 h [12] | IC50, cell viability 72 h [13] | IC50, cell viability 72 h [14] | IC50, cell viability 72 h [15] | IC50, cell viability 72 h [16] | IC50, cell viability 72 h [17] | IC50, cell viability 72 h [18] | IC50, cell viability 72 h [19] | IC50, cell viability 72 h [20] | IC50, cell viability 72 h [21] | IC50, cell viability 72 h [22] | IC50, cell viability 72 h [23] | IC50, cell viability 72 h [24] | IC50, cell viability 72 h [25] | IC50, cell viability 72 h [26] | IC50, cell viability 72 h [27] | IC50, cell viability 72 h [28] | IC50, cell viability 72 h [29] | IC50, cell viability 72 h [30] | IC50, cell viability 72 h [31] | IC50, cell viability 72 h [32] | IC50, cell viability 72 h [33] | IC50, cell viability 72 h [34] | IC50, cell viability 72 h [35]
KYSE-270 (Esophageal Squamous Cell Carcinoma) | > 5000 nM | 35.9 nM | 4580 nM | 39.4 nM | 4160 nM | > 10000 nM | > 1000 nM | > 10000 nM | 14900 nM | > 10000 nM | > 1000 nM | > 1000 nM | > 10000 nM | 10.7 nM | > 10000 nM | > 1000 nM | 7840 nM | > 3000 nM | 1400 nM | 8.06 nM | > 1 nM | 424 nM | 665 nM | > 10000 nM | > 300 nM | > 1000 nM | > 10000 nM | > 10000 nM | > 1000 nM | > 1000 nM | > 10000 nM | 506 nM | 8190 nM | 3470 nM | > 10000 nM
M059J (Glioblastoma) | > 5000 nM | 90.9 nM | 2590 nM | 17.6 nM | > 10000 nM | > 10000 nM | > 1000 nM | > 10000 nM | > 20000 nM | > 10000 nM | > 1000 nM | > 1000 nM | > 10000 nM | 14.1 nM | > 10000 nM | > 1000 nM | > 10000 nM | > 3000 nM | > 10000 nM | 241 nM | > 1 nM | 230 nM | 933 nM | > 10000 nM | > 300 nM | 164 nM | 4060 nM | > 10000 nM | > 1000 nM | > 1000 nM | > 10000 nM | 1390 nM | > 10000 nM | > 10000 nM | > 10000 nM
MN-60 (B-Lymphoblastic Leukemia) | > 5000 nM | 213 nM | > 10000 nM | 674 nM | > 10000 nM | > 10000 nM | > 1000 nM | > 10000 nM | > 20000 nM | > 10000 nM | > 1000 nM | > 1000 nM | > 10000 nM | 14.6 nM | > 10000 nM | > 1000 nM | > 10000 nM | > 3000 nM | > 10000 nM | > 1000 nM | > 1 nM | > 1000 nM | > 3000 nM | > 10000 nM | > 300 nM | 111 nM | > 10000 nM | > 10000 nM | > 1000 nM | > 1000 nM | > 10000 nM | > 2000 nM | > 10000 nM | > 10000 nM | > 10000 nM
MOG-G-CCM (Low Grade Glioma) | > 5000 nM | > 300 nM | > 10000 nM | 4.97 nM | > 10000 nM | > 10000 nM | > 1000 nM | > 10000 nM | > 20000 nM | > 10000 nM | > 1000 nM | > 1000 nM | > 10000 nM | 293 nM | > 10000 nM | > 1000 nM | > 10000 nM | > 3000 nM | > 10000 nM | 157 nM | > 1 nM | > 1000 nM | > 3000 nM | > 10000 nM | > 300 nM | 449 nM | 1930 nM | 4390 nM | > 1000 nM | > 1000 nM | > 10000 nM | 354 nM | > 10000 nM | 8270 nM | > 10000 nM
NCCIT (Other Solid Carcinomas) | > 5000 nM | > 300 nM | > 10000 nM | 11.8 nM | 8410 nM | > 10000 nM | 891 nM | > 10000 nM | > 20000 nM | > 10000 nM | > 1000 nM | > 1000 nM | 8120 nM | > 300 nM | > 10000 nM | > 1000 nM | > 10000 nM | > 3000 nM | > 10000 nM | 70.3 nM | > 1 nM | > 1000 nM | 561 nM | > 10000 nM | > 300 nM | 33.6 nM | > 10000 nM | > 10000 nM | > 1000 nM | > 1000 nM | 6670 nM | > 2000 nM | > 10000 nM | 1620 nM | > 10000 nM

From the supplement of paper PMC11061612
